Measured values as given in patent publication EP0369035A1, “AGENT FOR TREATING PANCREATITIS OR THE LIKE” (priority 1988, dated 1989).
Like-named read-outs stand apart in the source and are kept apart here.

Columns and labels:
human plasmin [1] = molecular target: T1, human plasmin (Homo sapiens, UniProt P00747); experiment: Anti-plasmin activity: inhibition of S-2251 degradation; type: biochemical
T1 construct: 50 µl of 0.2 casein units/ml of human plasmin
Protocol: ii) Assay method of inhibition of S-2251 degradation
The test substance was dissolved in a 0.05 M Tris-HC1 (pH7.4) buffer to make a total volume of 400 µl, and 50 µl of a 3 mM S-2251 solution was added to the solution. The mixture was incubated at 37°C for 5 minutes in an incubator, and after the addition of 50 µl of 0.2 casein units/ml of human plasmin, and incubation at 37°C for 4 minutes, the reaction was terminated by an addition of 50 µl of 50% acetic acid.

human plasmin [2] = molecular target: T1, human plasmin; experiment: Anti-plasmin activity: inhibition of fibrinolysis (fibrin clot lysis time); type: biochemical
human plasma kallikrein = molecular target: T2, human plasma kallikrein (Homo sapiens, UniProt P03952); experiment: Anti-plasma kallikrein activity: inhibition of S-2302 degradation; type: biochemical
T2 construct: 50 µl of 0.12 units/ml human plasma kallikrein solution
Protocol: 2) Assay of anti-plasma kallikrein activity Assay method of inhibition of S-2302 degradation
(§1) The test substance was dissolved in a 0.05 M Tris-HC1 (pH 7.8) buffer to make a total volume of 400 µl, and 50 µl of a 2 mM S-2302 solution was added to the solution. After incubation at 37°C for 5 minutes in an incubator, an addition of 50 µl of 0.12 units/ml human plasma kallikrein solution, and incubation at 37°C for 5 minutes, the reaction was terminated by an addition of 50 µl of 50% acetic acid.

human urokinase = human urokinase (Homo sapiens, UniProt P00749); experiment: Anti-urokinase activity: inhibition of S-2444 degradation; type: biochemical; details: substrate S-2444, 37°C, pH 8.8; read-out: Urokinase S-2444 (I50)
Protocol: 3) Assay of anti-urokinase activity Assay method of inhibition of S-2444 degradation
as §1, with “8.8)” for “7.8)”, “1” for “2”, “S-2444” for “S-2302”, “mixture.” for “solution.”, “500” for “0.12”, “urokinase” for “plasma kallikrein”

bovine factor Xa = molecular target: T3, bovine factor Xa (Bos taurus, UniProt P00743); experiment: Anti-FXa activity: inhibition of S-2222 degradation; type: biochemical
T3 construct: 0.05 ml of 0.3 vial/ml bovine factor Xa
Protocol: 4) Assay of anti-FXa activity Assay method of inhibition of S-2222 degradation
To 0.4 ml of the test substance dissolved in a 0.05 M Tris-HC1 (pH 8.3) buffer is added 0.05 ml of 3 mM S-2222 solution, and after incubation at 37°C for about 4 minutes, an addition of 0.05 ml of 0.3 vial/ml bovine factor Xa, and a reaction at 37°C for 4 minutes, the - reaction was terminated by adding 0.05 ml of 50% acetic acid.

[3] = tested on: experimental pancreatitis; experiment: Effect on experimental pancreatitis (sodium taurochorate + trypsin into the common bile duct), survival ratio; type: in vivo, SD-rats; design: Effect on experimental pancreatitis (100 mg/kg p.o.) After 24 hours / Effect on experimental pancreatitis (100 mg/kg p.o.) After 48 hours / Effect of existing control drug on experimental pancreatitis After 24 hours: unit not given here; details: rat; for Effect on experimental pancreatitis Survival ratio(%) After 24 hours / Effect on experimental pancreatitis Survival ratio(%) After 48 hours: 80 μg/kg/min. x 80 min. continuous infusion; for Effect on experimental pancreatitis (100 mg/kg p.o.) After 24 hours / Effect on experimental pancreatitis (100 mg/kg p.o.) After 48 hours / Effect of existing control drug on experimental pancreatitis After 24 hours: survival ratio; for Effect on experimental pancreatitis (100 mg/kg p.o.) After 24 hours / Effect on experimental pancreatitis (100 mg/kg p.o.) After 48 hours: 100 mg/kg p.o. 30 minutes before pancreatitis
Source text: [II] Effect on experimental pancreatitis
SD-rats, body weight of about 200 g were, starved overnight, and 10 to 24 animals were used in one group. Sodium pentobarbital was intraperioneally administered to anesthetize each rat, and then a cannula was inserted to the femoral vein for the administration of the test substance. After abdominal surgery, the bile duct was blocked at a part thereof proximate to the liver, by a clip, a polyethylene tube was inserted to the common bile duct at a part thereof most proximate to the duodenum, and 0.1 ml of solution containing 2 mg sodium taurochorate and 1000 U trypsin dissolved in physiological saline was injected retrogrodely. After removal of the clip and tube, the common bile duct was ligated and the abdomen was closed. Note, the test substance was dissolved in an injective 5% glucose solution, and in the case of a continuous infusion, the solution was administered over 80 minutes starting from 10 minutes before the generation of pancreatitis. In the case of oral administration, the test substance was administered through an oral catheter 30 minutes before the generation of pancreatitis. After 24 hours and 48 hours from the generation of pancreatitis, the survival ratio of the animals was calculated and compared with a control group.

experimental DIC = experiment: Effect on experimental DIC and MOF (endotoxin-induced); type: in vivo, SD-rats; details: rat, 4 hours after endotoxin 10 mg/kg; for CPK: Table 5-1
Protocol: [III] Effect on experimental DIC
SD-rats, body weight of about 200 g, were starved overnight. Sodium pentobarbital was intraperioneally administered to anesthetize a rat, and then a cannula was inserted to the femoral vein, and the test substance dissolved in an injective 5% glucose solution was continually infused. Then, 10 minutes from the start of the injection, endotoxin (E. coli 0127:B8, Difco, U.S.) dissolved in physiological saline was injected through the tail vein to an amount of 10 mg/kg body weight, and 4 hours from the administration of endotoxin, the abdomen was opened, blood was obtained from the abdominal aorta, and platelets (Plt), fibrinogen (Fbg), fibrin degradation product (FDP), glutamic oxaloacetic transamirase (GOT), creatinine phosphokinase (CPK), and blood urin nitrogen (BUN) were measured.

experimental shock = experiment: Effect on experimental shock (endotoxin-induced), survival ratio; type: in vivo, ICR-mice; details: dose of 30 mg/kg intraperitoneally 15 minutes before endotoxin 40 mg/kg, mouse
Protocol: [IV] Effect on experimental shock
ICR-mice, body weight of about 25 g, were starved overnight. The test substance was dissolved in an injective 5% glucose solution and intraperioneally administered, and 15 minutes later, endotoxin (E. coli 0127:B8, Difco, U.S.) dissolved in a physiological saline was intraperioneally administered to an amount of 40 mg/kg body weight.

in vivo = details: mouse, intravenous, ICR male mice, up-and-down method, read-out: Acute toxicity (LD50)
Protocol: ICR male mice 5 to 10 weeks old were used. The test substance was dissolved in a 5% dimethylsulfoxide aqueous solution, and the solution was intravenously administered in an amount of 0.1 to 0.2 ml/10 g body weight. An LD50 value was calculated by up-and-down method.

[4] = Measurement of half life in blood; type: in vivo; details: rat, iv, administered to the tail vein, SD-rats, plasma, HPLC
Protocol: [VI] Measurement of half life in blood
SD-rats 6 to 7 weeks old were used. The test substance was dissolved in an injective 5% glucose solution and administered to the tail vein. After the administration, blood samples were periodically obtained from the great vein and placed into heparinized test tubes. Plasma was separated by centrifugation and the test substance was extracted with ethyl acetate. After removal of the solvent, the residue was dissolved in 200 µl of methanol, and analyzed by high performance liquid chromatography. From the change of the concentration of the test substance in blood with time, a half life thereof in blood was calculated.

[5] = substrate S-2251, 37°C, pH7.4, read-out: Plasmin S-2251 (I50)
[6] = concentration giving a fibrin clot lysis time twice that of control, 37°C, pH7.4, read-out: Plasmin Fibrin (I50)
[7] = substrate S-2302, 37°C, pH 7.8, read-out: Plasma kallikrein S-2302 (I50)

T1 sequence (P00747 581-810 limits assumed): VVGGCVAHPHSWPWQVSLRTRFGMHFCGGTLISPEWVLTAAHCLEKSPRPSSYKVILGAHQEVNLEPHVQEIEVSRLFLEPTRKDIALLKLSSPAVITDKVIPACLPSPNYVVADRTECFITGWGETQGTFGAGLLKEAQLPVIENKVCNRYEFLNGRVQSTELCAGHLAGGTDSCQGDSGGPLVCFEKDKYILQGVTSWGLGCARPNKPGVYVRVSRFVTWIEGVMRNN
T1 sequence (P00747 97-580 partner limits assumed): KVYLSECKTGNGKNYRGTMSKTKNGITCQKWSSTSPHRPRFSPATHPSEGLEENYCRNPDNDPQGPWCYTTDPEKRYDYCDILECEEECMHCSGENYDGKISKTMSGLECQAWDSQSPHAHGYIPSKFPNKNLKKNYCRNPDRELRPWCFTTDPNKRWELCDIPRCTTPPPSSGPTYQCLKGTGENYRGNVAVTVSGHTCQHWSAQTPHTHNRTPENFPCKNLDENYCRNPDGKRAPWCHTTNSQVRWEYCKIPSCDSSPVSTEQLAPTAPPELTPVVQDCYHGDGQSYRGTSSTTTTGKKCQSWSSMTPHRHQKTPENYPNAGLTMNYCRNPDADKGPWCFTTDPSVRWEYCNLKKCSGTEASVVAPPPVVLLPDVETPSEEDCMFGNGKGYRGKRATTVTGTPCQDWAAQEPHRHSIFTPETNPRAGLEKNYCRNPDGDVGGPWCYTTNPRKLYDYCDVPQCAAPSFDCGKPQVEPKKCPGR
T2 sequence (P03952 391-638 limits assumed): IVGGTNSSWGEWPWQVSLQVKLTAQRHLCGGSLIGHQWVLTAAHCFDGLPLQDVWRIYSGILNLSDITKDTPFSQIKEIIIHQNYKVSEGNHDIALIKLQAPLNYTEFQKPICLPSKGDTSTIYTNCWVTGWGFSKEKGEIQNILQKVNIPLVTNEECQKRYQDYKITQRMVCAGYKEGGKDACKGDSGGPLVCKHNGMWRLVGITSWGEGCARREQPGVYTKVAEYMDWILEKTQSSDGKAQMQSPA
T2 sequence (P03952 20-390 partner limits assumed): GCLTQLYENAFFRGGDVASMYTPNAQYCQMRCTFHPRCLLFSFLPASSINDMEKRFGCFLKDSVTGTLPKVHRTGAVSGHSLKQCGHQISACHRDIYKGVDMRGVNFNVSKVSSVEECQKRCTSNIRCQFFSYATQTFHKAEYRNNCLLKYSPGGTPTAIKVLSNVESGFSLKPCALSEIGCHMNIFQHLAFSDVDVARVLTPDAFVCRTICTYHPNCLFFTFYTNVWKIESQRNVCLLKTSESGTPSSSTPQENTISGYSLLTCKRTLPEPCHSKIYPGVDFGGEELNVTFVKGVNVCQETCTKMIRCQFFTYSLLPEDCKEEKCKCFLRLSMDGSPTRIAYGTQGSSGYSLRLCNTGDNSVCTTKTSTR
T3 sequence (P00743 234-492 limits assumed): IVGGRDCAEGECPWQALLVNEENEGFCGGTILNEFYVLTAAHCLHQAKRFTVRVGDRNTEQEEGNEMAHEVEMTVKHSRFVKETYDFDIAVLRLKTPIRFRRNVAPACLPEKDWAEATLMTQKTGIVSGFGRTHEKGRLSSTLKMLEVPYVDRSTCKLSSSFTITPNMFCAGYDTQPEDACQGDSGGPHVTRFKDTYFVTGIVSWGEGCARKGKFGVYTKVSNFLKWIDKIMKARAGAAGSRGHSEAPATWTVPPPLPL
T3 sequence (P00743 41-180 partner limits assumed): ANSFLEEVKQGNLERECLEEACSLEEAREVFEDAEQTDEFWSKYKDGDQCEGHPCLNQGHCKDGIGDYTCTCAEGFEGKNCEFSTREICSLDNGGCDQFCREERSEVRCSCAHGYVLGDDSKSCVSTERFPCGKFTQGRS

SMILES | IC50 (human plasmin [1]; [5]) [µM] | IC50 (human plasmin [2]; [6]) [µM] | IC50 (human plasma kallikrein; [7]) [µM] | IC50 (human urokinase) [µM] | Effect on experimental pancreatitis Survival ratio(%) After 24 hours [3] [%] | Effect on experimental pancreatitis Survival ratio(%) After 48 hours [3] [%] | Effect on experimental pancreatitis (100 mg/kg p.o.) After 24 hours [3] | Effect on experimental pancreatitis (100 mg/kg p.o.) After 48 hours [3] | BUN (experimental DIC; Dose 10 μg/kg/min infusion) [mg/dL] | FDP (experimental DIC; Dose 10 μg/kg/min infusion) [µg/mL] | Fbg (experimental DIC; Dose 10 μg/kg/min infusion) [mg/dL] | GOT (experimental DIC; Dose 10 μg/kg/min infusion) [U/ml] | Plat (experimental DIC; Dose 10 μg/kg/min infusion) | Effect on experimental shock (Survival ratio (%) after 24 hours) (experimental shock) [%] | LD50 (in vivo) [mg/kg] | half-life [4] [min] | also measured
CC(=O)c1ccc(NC(=O)[C@H](Cc2ccc(OCc3ccccn3)cc2)NC(=O)[C@H]2CC[C@H](CN)CC2)cc1 [Compound 6] | 2.7 | 1.4 | 2 | 75 | 62.5 | 54.1 | 66.7 | 53.3 | 26 ± 2 | 8 to 32 | 179 ± 15 | 196 ± 28 | 95 ± 14 x 10^4/μl | 70 | 85 | 12.2 | IC50 (bovine factor Xa; substrate S-2222, 37°C, pH 8.3, read-out: FXa S-2222 (I50)): 160 µM; BUN (experimental DIC; Dose 1 μg/kg/min infusion): 36 ± 2 mg/dL; FDP (experimental DIC; Dose 1 μg/kg/min infusion): 32 to 65 µg/mL; Fbg (experimental DIC; Dose 1 μg/kg/min infusion): 140 ± 18 mg/dL; GOT (experimental DIC; Dose 1 μg/kg/min infusion): 217 ± 29 U/ml; Plat (experimental DIC; Dose 1 μg/kg/min infusion): 68 ± 11 x 10^4/μl; CPK (experimental DIC; Dose 10 μg/kg/min infusion): 22 ± 6 U/1
NC[C@H]1CC[C@H](C(=O)N[C@@H](Cc2ccc([N+](=O)[O-])cc2)C(=O)Nc2ccc(C(=O)c3ccccc3)cc2)CC1 [Compound 10] | 7 | 1.8 | 2.7 | 5 | 50.0 | 33.3 | 66.7 | 53.3 | 32 ± 2 | 16 to 128 | 109 ± 30 | 302 ± 29 | 68 ± 8 x 10^4/μl | 79 | 85 | 6.8 | BUN (experimental DIC; Dose 100 μg/kg/min infusion): 30 ± 2 mg/dL; FDP (experimental DIC; Dose 100 μg/kg/min infusion): 16 to 128 µg/mL; Fbg (experimental DIC; Dose 100 μg/kg/min infusion): 128 ± 32 mg/dL; GOT (experimental DIC; Dose 100 μg/kg/min infusion): 258 ± 60 U/ml; Plat (experimental DIC; Dose 100 μg/kg/min infusion): 66 ± 10 x 10^4/μl; CPK (experimental DIC; Dose 100 μg/kg/min infusion): 20 ± 5 U/1
CCOC(=O)c1ccc(OC(=O)CCCCCNC(=N)N)cc1 [FOY, gabexate mesilate, reference compound] |  |  |  | 1.3 |  |  |  |  |  |  |  |  |  |  | 248 |  | IC50 (human plasmin [1]): 3.4 µM; IC50 (human plasmin [2]): 3 µM; IC50 (human plasma kallikrein): 1.3 µM; IC50 (bovine factor Xa): 43 µM; Effect of existing control drug on experimental pancreatitis After 24 hours ([3]; 250 μg/kg/min x 80 min): 16.6; Effect of existing control drug on experimental pancreatitis After 24 hours ([3]; 1000 μg/kg/min x 80 min): 42.0; half-life ([4]; in vivo): 0.4 min
